For one assay, the system named is p-ERK/total ERK. Briefly: p-ERK/total ERK Cellular Assay. It counts as cell-based. As to the method: p-ERK/total ERK Cellular Assay
Cells were seeded in 384-well cell culture plate and incubated overnight. Test compounds were added to the cell plate and the plate was incubated for 2-6 hours. To detect p-ERK, the cell plate was used AlphaLISA SureFire Ultra p-ERK kit; to detect total ERK, the cell plate was used total ERK HTRF kit. The plate was read on the Envision.

The target in another assay is Full length SHP2 enzyme (Homo sapiens (Human), UniProt Q06124). Briefly: SHP2 Phosphatase Assays. The note with it: full length SHP2 0.1 nM, 1 uM IRS-1 peptide, DiFMUP substrate, room temperature. The assay is classed as biochemical. As to the method:
IC50 values were determined at room temperature in 384-well black polystyrene plate, using a final reaction volume of 15 μl and the following assay buffer conditions: 60 mM Hepes (pH=7.2), 75 mM NaCl, 75 mM KCl, and 1 mM EDTA, 0.05% P-20, 5 mM dithiothreitol (DTT). Full length SHP2 enzyme (diluted to 0.1 nM in reaction buffer) were co-incubated with 1 uM IRS-1 peptide and 0.01 nM to 10 μM compounds of the disclosure for 60 min. The surrogate substrate DiFMUP (5 μL, […]) was added, and incubated at rt for 60 min. The reaction was then quenched by the addition of 5 μL of a 40 μM solution of bpV(Phen). The fluorescence signal was monitored using a microplate reader (Envision, Perkin-Elmer) using excitation and emission wavelengths of 360 nm and 450 nm, respectively. The inhibitor dose-response curves were analyzed using normalized IC50 regression curve fitting with control-based normalization.

For a further assay, the system named is cells. Put plainly: Cell Proliferation Assay (CellTiter Glo). The assay is classed as cell-based. As to the method:
Firstly, the cells were seeded in 384-well cell culture plate and incubate overnight. The test compounds were added to the cell plate and incubated for 3-5 days. The cell plate was then detected using CellTiter Glo reagents.
Background: ATP-based viability assays read luminescence as a measure of living cells.

Setting [1] is: p-ERK (AlphaLISA SureFire Ultra) / total ERK (HTRF), 2-6 hours incubation, read-out: IC50.
Where [2] appears, read: 3-5 days incubation, CellTiter Glo, read-out: IC50.

This passage reports IC50 results from US10561655B2 (SYNBLia Therapeutics, Inc., priority 2018, dated 2020).

As a reminder, the IC50 is the point on the concentration scale where inhibition reaches its midpoint.

Like-named read-outs stand apart in the source and are kept apart here.

Sequence of Full length SHP2 enzyme (Q06124 whole entry): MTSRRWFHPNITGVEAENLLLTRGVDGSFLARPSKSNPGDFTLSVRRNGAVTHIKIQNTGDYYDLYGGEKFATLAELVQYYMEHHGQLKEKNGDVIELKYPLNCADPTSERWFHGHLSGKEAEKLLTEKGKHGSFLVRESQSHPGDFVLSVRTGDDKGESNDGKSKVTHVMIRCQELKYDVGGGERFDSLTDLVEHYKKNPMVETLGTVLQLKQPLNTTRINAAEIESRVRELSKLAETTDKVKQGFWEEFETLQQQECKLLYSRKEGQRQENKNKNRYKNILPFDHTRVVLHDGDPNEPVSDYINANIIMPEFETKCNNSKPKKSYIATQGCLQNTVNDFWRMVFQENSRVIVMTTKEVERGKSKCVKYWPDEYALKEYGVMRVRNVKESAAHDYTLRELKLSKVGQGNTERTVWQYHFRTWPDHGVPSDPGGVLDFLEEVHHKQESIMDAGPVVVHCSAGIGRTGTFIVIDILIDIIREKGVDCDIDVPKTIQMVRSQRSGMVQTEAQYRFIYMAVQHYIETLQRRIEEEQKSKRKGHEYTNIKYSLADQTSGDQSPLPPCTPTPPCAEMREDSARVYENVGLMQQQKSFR

On to `CC1(CN)CCN(c2ncc(Sc3cccc(Cl)c3Cl)[nH]c2=O)CC1` [Compound 2, 3-(4-(aminomethyl)-4-methylpiperidin-1-yl)-6-((2,3-dichlorophenyl)thio)pyrazin-2(1H)-one], for which the IC50 in the assay on p-ERK/total ERK is below 500 nM; against Full length SHP2 enzyme, at most 50 nM; in the assay on cells, below 5000 nM.
As to `NC1COCC12CCN(c1ncc(Sc3cccc(Cl)c3Cl)[nH]c1=O)CC2` (centres unmarked) [Compound 10, 3-(4-amino-2-oxa-8-azaspiro[4.5]decan-8-yl)-6-((2,3-dichlorophenyl)thio)pyrazin-2(1H)-one], the IC50 with p-ERK/total ERK is below 100 nM; with cells it was below 5000 nM.
With `NC1C2CC2CC12CCN(c1ncc(Sc3cccc(Cl)c3Cl)[nH]c1=O)CC2` (centres unmarked) [Compound 13, 3-(2-aminospiro[bicyclo[3.1.0]hexane-3,4′-piperidin]-1′-yl)-6-((2,3-dichlorophenyl)thio)pyrazin-2(1H)-one], the IC50 on Full length SHP2 enzyme was at most 50 nM.
Regarding `C[C@@H]1OCC2(CCN(c3ncc(Sc4cccc(Cl)c4Cl)[nH]c3=O)CC2)[C@@H]1N` [Compound 14], the IC50 with p-ERK/total ERK (setting [1]) is below 100 nM; against Full length SHP2 enzyme, at most 50 nM; in the assay with cells (setting [2]), below 1000 nM.
In the case of `CC1(CN)CCN(c2ncc(Sc3cccc(NC(=O)c4c(O)nc5ccccn5c4=O)c3Cl)[nH]c2=O)CC1` [Compound 29, N-(3-((5-(4-(aminomethyl)-4-methylpiperidin-1-yl)-6-oxo-1,6-dihydropyrazin-2-yl)thio)-2-chlorophenyl)-2-hydroxy-4-oxo-4H-pyrido[1,2-a]pyrimidine-3-carboxamide], the figures for the IC50 with p-ERK/total ERK (setting [1]), on Full length SHP2 enzyme and with cells (setting [2]) were below 100 nM, at most 50 nM and below 5000 nM, respectively.
For the molecule `CC1(CN)CCN(c2ncc(Sc3cccc(NC(=O)c4c(O)nc5cnccn5c4=O)c3Cl)[nH]c2=O)CC1` [Compound 30, N-(3-((5-(4-(aminomethyl)-4-methylpiperidin-1-yl)-6-oxo-1,6-dihydropyrazin-2-yl)thio)-2-chlorophenyl)-2-hydroxy-4-oxo-4H-pyrazino[1,2-a]pyrimidine-3-carboxamide], in the assay on p-ERK/total ERK (setting [1]), the IC50 is below 100 nM.
In the case of `CC1(CN)CCN(c2ncc(Sc3cccc(NC(=O)c4c(O)nc5sccn5c4=O)c3Cl)[nH]c2=O)CC1` [Compound 31, N-(3-((5-(4-(aminomethyl)-4-methylpiperidin-1-yl)-6-oxo-1,6-dihydropyrazin-2-yl)thio)-2-chlorophenyl)-7-hydroxy-5-oxo-5H-thiazolo[3,2-a]pyrimidine-6-carboxamide], the results for the IC50 with p-ERK/total ERK (setting [1]), against Full length SHP2 enzyme and in the assay with cells (setting [2]) were below 100 nM, at most 50 nM and below 5000 nM, respectively.
`CC1(CN)CCN(c2ncc(Sc3cccc(NC(=O)c4c(O)nc5[nH]ccn5c4=O)c3Cl)[nH]c2=O)CC1` [Compound 32, N-(3-((5-(4-(aminomethyl)-4-methylpiperidin-1-yl)-6-oxo-1,6-dihydropyrazin-2-yl)thio)-2-chlorophenyl)-7-hydroxy-5-oxo-1,5-dihydroimidazo[1,2-a]pyrimidine-6-carboxamide] yielded an IC50 on Full length SHP2 enzyme of at most 50 nM.
On to `CC1(CN)CCN(c2ncc(Sc3cccc(NC(=O)c4c(O)nc5n(c4=O)CCCC5)c3Cl)[nH]c2=O)CC1` [Compound 33, N-(3-((5-(4-(aminomethyl)-4-methylpiperidin-1-yl)-6-oxo-1,6-dihydropyrazin-2-yl)thio)-2-chlorophenyl)-2-hydroxy-4-oxo-6,7,8,9-tetrahydro-4H-pyrido[1,2-a]pyrimidine-3-carboxamide], for which the figures for the IC50 in the assay on p-ERK/total ERK (setting [1]) and on Full length SHP2 enzyme were below 100 nM and at most 50 nM, respectively.
For the molecule `CC1(CN)CCN(c2nc3[nH]nc(Nc4cccc(Cl)c4Cl)c3c(=O)[nH]2)CC1` [Compound 34, 6-(4-(aminomethyl)-4-methylpiperidin-1-yl)-3-((2,3-dichlorophenyl)amino)-1,5-dihydro-4H-pyrazolo[3,4-d]pyrimidin-4-one], the IC50 in the assay with p-ERK/total ERK (setting [1]) is below 500 nM; against Full length SHP2 enzyme, at most 50 nM.
As for `CC1(CN)CCN(c2nc3[nH]nc(Oc4cccc(Cl)c4Cl)c3c(=O)[nH]2)CC1` [Compound 35, 6-(4-(aminomethyl)-4-methylpiperidin-1-yl)-3-(2,3-dichlorophenoxy)-1,5-dihydro-4H-pyrazolo[3,4-d]pyrimidin-4-one], the IC50 in the assay with p-ERK/total ERK (setting [1]) is below 500 nM; on Full length SHP2 enzyme, at most 50 nM.
As to `Cn1c(N2CCC(C)(CN)C2)nc(N)c(Sc2cccc(Cl)c2Cl)c1=O` (centres unmarked) [Compound 52, 6-amino-2-(3-(aminomethyl)-3-methylpyrrolidin-1-yl)-5-((2,3-dichlorophenyl)thio)-3-methylpyrimidin-4(3H)-one], on Full length SHP2 enzyme, the IC50 was at most 50 nM.
On to `N[C@@H]1COCC12CCN(c1ncc(Sc3cccc(Cl)c3Cl)[nH]c1=O)CC2` [Compound 73, (S)-3-(4-amino-2-oxa-8-azaspiro[4.5]decan-8-yl)-6-((2,3-dichlorophenyl)thio)pyrazin-2(1H)-one], for which the IC50 was below 100 nM with p-ERK/total ERK (setting [1]), at most 50 nM on Full length SHP2 enzyme and below 5000 nM in the assay with cells (setting [2]).
On to `NC1CCCC(n2ccc(-c3cccc(Cl)c3Cl)cc2=O)C1` (centres unmarked) [Compound 74, 1-(3-aminocyclohexyl)-4-(2,3-dichlorophenyl)pyridin-2(1H)-one], for which the IC50 against Full length SHP2 enzyme is at most 50 nM.
Same read-out and setting: then `C[C@@H]1OCC2(CCN(c3ncc(Sc4ccnc(N)c4Cl)[nH]c3=O)CC2)[C@@H]1N` [Compound 77, 6-((2-amino-3-chloropyridin-4-yl)thio)-3-((3S,4S)-4-amino-3-methyl-2-oxa-8-azaspiro[4.5]decan-8-yl)pyrazin-2(1H)-one], with at most 50 nM.
Take `COc1cccc(Sc2cnc(N3CCC4(CC3)CO[C@@H](C)[C@H]4N)c(=O)[nH]2)c1Cl` [Compound 79, 3-((3S,4S)-4-amino-3-methyl-2-oxa-8-azaspiro[4.5]decan-8-yl)-6-((2-chloro-3-methoxyphenyl)thio)pyrazin-2(1H)-one]: the IC50 with p-ERK/total ERK (setting [1]) is below 100 nM; against Full length SHP2 enzyme, at most 50 nM.
As to `COc1nccc(Sc2cnc(N3CCC4(CC3)CO[C@@H](C)[C@H]4N)c(=O)[nH]2)c1Cl` [Compound 80, 3-((3S,4S)-4-amino-3-methyl-2-oxa-8-azaspiro[4.5]decan-8-yl)-6-((3-chloro-2-methoxypyridin-4-yl)thio)pyrazin-2(1H)-one], the IC50 in the assay on p-ERK/total ERK (setting [1]) was below 100 nM; on Full length SHP2 enzyme, at most 50 nM.
Consider `C[C@@H]1OCC2(CCN(c3ncc(Sc4ccnc(Cl)c4Cl)[nH]c3=O)CC2)[C@@H]1N` [Compound 81, 3-((3S,4S)-4-amino-3-methyl-2-oxa-8-azaspiro[4.5]decan-8-yl)-6-((2,3-dichloropyridin-4-yl)thio)pyrazin-2(1H)-one], for which the IC50 is below 100 nM in the assay with p-ERK/total ERK (setting [1]), at most 50 nM at Full length SHP2 enzyme and below 1000 nM in the assay on cells (setting [2]).
`C[C@@H]1OCC2(CCN(c3ncc(Sc4cccc(F)c4F)[nH]c3=O)CC2)[C@@H]1N` [Compound 82, 3-((3S,4S)-4-amino-3-methyl-2-oxa-8-azaspiro[4.5]decan-8-yl)-6-((2,3-difluorophenyl)thio)pyrazin-2(1H)-one]: the figures for the IC50 in the assay on p-ERK/total ERK (setting [1]), against Full length SHP2 enzyme and in the assay on cells (setting [2]) were below 100 nM, at most 50 nM and below 5000 nM, respectively.
Take `C[C@@H]1OCC2(CCN(c3ncc(Sc4ccnc(F)c4Cl)[nH]c3=O)CC2)[C@@H]1N` [Compound 83, 3-((3S,4S)-4-amino-3-methyl-2-oxa-8-azaspiro[4.5]decan-8-yl)-6-((3-chloro-2-fluoropyridin-4-yl)thio)pyrazin-2(1H)-one]: the IC50 in the assay with p-ERK/total ERK (setting [1]) is below 100 nM; at Full length SHP2 enzyme it was at most 50 nM; in the assay with cells (setting [2]) it was below 1000 nM.
On to `C[C@@H]1OCC2(CCN(c3ncc(Sc4ccnc(F)c4F)[nH]c3=O)CC2)[C@@H]1N` [Compound 84], for which the IC50 with p-ERK/total ERK (setting [1]) is below 100 nM; against Full length SHP2 enzyme, at most 50 nM; in the assay on cells (setting [2]) it was below 1000 nM.
Molecule `NC1C2CN(c3ncc(Sc4cccc(Cl)c4Cl)[nH]c3=O)CC12` (centres unmarked) [Compound 86, 3-(6-amino-3-azabicyclo[3.1.0]hexan-3-yl)-6-((2,3-dichlorophenyl)thio)pyrazin-2(1H)-one] displayed an IC50 on Full length SHP2 enzyme of at most 50 nM.
On Full length SHP2 enzyme, `N[C@@H]1c2ccccc2OC12CCN(c1ncc(Sc3cccc(Cl)c3Cl)[nH]c1=O)CC2` [Compound 87, (R)-3-(3-amino-3H-spiro[benzofuran-2,4′-piperidin]-1′-yl)-6-((2,3-dichlorophenyl)thio)pyrazin-2(1H)-one] displayed an IC50 of at most 50 nM.
Regarding `N[C@@H]1COCC12CCN(c1ncc(Sc3ccnc(Cl)c3Cl)[nH]c1=O)CC2` [Compound 88, (S)-3-(4-amino-2-oxa-8-azaspiro[4.5]decan-8-yl)-6-((2,3-dichloropyridin-4-yl)thio)pyrazin-2(1H)-one], the IC50 on Full length SHP2 enzyme was at most 50 nM.
`C[C@@H]1OCC2(CCN(c3ncc(Sc4cc[nH]c(=O)c4Cl)[nH]c3=O)CC2)[C@@H]1N` [Compound 107, 3-((3S,4S)-4-amino-3-methyl-2-oxa-8-azaspiro[4.5]decan-8-yl)-6-((3-chloro-2-oxo-1,2-dihydropyridin-4-yl)thio)pyrazin-2(1H)-one]: the IC50 against Full length SHP2 enzyme is at most 50 nM.
At Full length SHP2 enzyme, `N[C@@H]1c2ccccc2CC12CCN(c1ncc(Sc3cccc(Cl)c3Cl)[nH]c1=O)CC2` [Compound 108, (S)-3-(1-amino-1,3-dihydrospiro[indene-2,4′-piperidin]-1′-yl)-6-((2,3-dichlorophenyl)thio)pyrazin-2(1H)-one] showed an IC50 of at most 50 nM.
